Reference: patent US20110257170A1, “4-MORPHOLINO-PYRIDO[3,2-D]PYRIMIDINES” (MERCK SERONO SA, priority 2008, published 2011)

Experiments:
[1] = test system: T1, Human recombinant GST-PI3K; test: PI3K lipid phosphorylation scintillation proximity assay (neomycin-coated SPA beads); assay type: biochemical; conditions: 120 min at room temperature, isoform not stated
T1 construct: fused on or other part: GST tag
Excerpt: The efficacy of compounds of the invention in inhibiting the PI3K induced-lipid phosphorylation may be tested in the following binding assay. The assay combines the scintillation proximity assay technology (SPA, Amersham) with the capacity of neomycin (a polycationic antibiotic) to bind phospholipids with high affinity and specificity. The Scintillation Proximity Assay is based on the properties of weakly emitting isotopes (such as ^3H, ^125I, ^33P). Coating SPA beads with neomycin allows the detection of phosphorylated lipid substrates after incubation with recombinant PI3K and radioactive ATP in the same well, by capturing the radioactive phospholipids to the SPA beads through their specific binding to neomycin. […] After precipitation of the neomycin-coated PVT SPA beads for 5 minutes at 1500×g, radioactive Ptdlns(3)P is quantified by scintillation counting in a Wallac MicroBeta™ plate counter. […]

melting point	IC50 [1]	SMILES
212 to 213 °C (dec.)	–	COC(=O)c1cc(Cl)c2nc(Cl)nc(N3CCOCC3)c2n1 [Example E-1, Methyl 2,8-dichloro-4-morpholin-4-yl-pyrido[3,2-d]pyrimidine-6-carboxylate]
–	8.61 µM	Cc1ccc2nc(Cl)nc(N3CCOCC3)c2n1 [Example E-34, 2-Chloro-6-methyl-4-morpholin-4-ylpyrido[3,2-d]pyrimidine]
